Test results as given in a compilation of properties of binary mixtures (doi:10.1016/j.fluid.2015.01.011).

Assay: xn = mol fraction of the nth substance listed
Conditions: 100 kPa

## CCOS(=O)(=O)[O-].CC[n+]1ccn(C)c1 + CC[n+]1ccn(C)c1.N#C[S-]
298.15 K, x2 = 0
  electrical conductivity: 0.308 S/m
  viscosity: 96.9 mPa·s
303.15 K, x2 = 0
  electrical conductivity: 0.382 S/m
  viscosity: 76.5 mPa·s
308.15 K, x2 = 0
  electrical conductivity: 0.469 S/m
  viscosity: 61.6 mPa·s
313.15 K, x2 = 0
  electrical conductivity: 0.57 S/m
318.15 K, x2 = 0
  electrical conductivity: 0.678 S/m
323.15 K, x2 = 0
  electrical conductivity: 0.871 S/m
  viscosity: 35 mPa·s
328.15 K, x2 = 0
  viscosity: 29.7 mPa·s
333.15 K, x2 = 0
  viscosity: 25.6 mPa·s
338.15 K, x2 = 0
  viscosity: 22.04 mPa·s
343.15 K, x2 = 0
  viscosity: 19.23 mPa·s
348.15 K, x2 = 0
  viscosity: 16.89 mPa·s

## CC[n+]1ccn(C)c1.N#C[N-]C#N + CC[n+]1ccn(C)c1.N#C[S-]
298.15 K, x2 = 0
  electrical conductivity: 2.84 S/m
  viscosity: 14.78 mPa·s
298.15 K, x2 = 0.5112
  electrical conductivity: 2.51 S/m
  viscosity: 18.27 mPa·s
298.15 K, x2 = 0.7603
  electrical conductivity: 2.41 S/m
  viscosity: 20.62 mPa·s
303.15 K, x2 = 0
  electrical conductivity: 3.22 S/m
  viscosity: 12.87 mPa·s
303.15 K, x2 = 0.2585
  electrical conductivity: 3.05 S/m
  viscosity: 14.18 mPa·s
303.15 K, x2 = 0.5112
  electrical conductivity: 2.89 S/m
  viscosity: 15.74 mPa·s
303.15 K, x2 = 0.7603
  electrical conductivity: 2.76 S/m
  viscosity: 17.66 mPa·s
308.15 K, x2 = 0
  electrical conductivity: 3.63 S/m
  viscosity: 11.3 mPa·s
308.15 K, x2 = 0.5112
  electrical conductivity: 3.27 S/m
  viscosity: 13.7 mPa·s
308.15 K, x2 = 0.7603
  electrical conductivity: 3.14 S/m
  viscosity: 15.3 mPa·s
313.15 K, x2 = 0
  electrical conductivity: 4.06 S/m
  viscosity: 9.76 mPa·s
313.15 K, x2 = 0.2585
  electrical conductivity: 3.87 S/m
  viscosity: 10.72 mPa·s
313.15 K, x2 = 0.5112
  electrical conductivity: 3.67 S/m
  viscosity: 11.78 mPa·s
313.15 K, x2 = 0.7603
  electrical conductivity: 3.56 S/m
  viscosity: 13.12 mPa·s
318.15 K, x2 = 0.2585
  electrical conductivity: 4.33 S/m
  viscosity: 9.75 mPa·s
318.15 K, x2 = 0.5112
  electrical conductivity: 4.14 S/m
  viscosity: 10.66 mPa·s
323.15 K, x2 = 0
  electrical conductivity: 5.02 S/m
  viscosity: 8.01 mPa·s
323.15 K, x2 = 0.2585
  electrical conductivity: 4.81 S/m
  viscosity: 8.73 mPa·s
323.15 K, x2 = 0.7603
  electrical conductivity: 4.48 S/m
  viscosity: 10.47 mPa·s
328.15 K, x2 = 0
  viscosity: 7.24 mPa·s
328.15 K, x2 = 0.5112
  viscosity: 8.54 mPa·s
328.15 K, x2 = 0.7603
  viscosity: 9.37 mPa·s
333.15 K, x2 = 0.2585
  viscosity: 6.92 mPa·s
333.15 K, x2 = 0.5112
  viscosity: 7.51 mPa·s
333.15 K, x2 = 0.7603
  viscosity: 8.25 mPa·s
338.15 K, x2 = 0
  viscosity: 6 mPa·s
338.15 K, x2 = 0.5112
  viscosity: 7.01 mPa·s
338.15 K, x2 = 0.7603
  viscosity: 7.64 mPa·s
343.15 K, x2 = 0
  viscosity: 5.51 mPa·s
343.15 K, x2 = 0.2585
  viscosity: 5.94 mPa·s
343.15 K, x2 = 0.5112
  viscosity: 6.4 mPa·s
343.15 K, x2 = 0.7603
  viscosity: 6.95 mPa·s
348.15 K, x2 = 0
  viscosity: 5.06 mPa·s
348.15 K, x2 = 0.2585
  viscosity: 5.47 mPa·s
348.15 K, x2 = 0.7603
  viscosity: 6.36 mPa·s
353.15 K, x2 = 0
  viscosity: 4.52 mPa·s
353.15 K, x2 = 0.2585
  viscosity: 4.89 mPa·s
353.15 K, x2 = 0.5112
  viscosity: 5.25 mPa·s

## [N-]=C=S.[NH4+] + CC[n+]1ccn(C)c1.N#C[S-]
298.15 K, x1 = 0.039
  electrical conductivity: 2.07 S/m
  viscosity: 25.9 mPa·s
298.15 K, x1 = 0.099
  electrical conductivity: 2.05 S/m
  viscosity: 29.9 mPa·s
298.15 K, x1 = 0.1395
  electrical conductivity: 1.86 S/m
  viscosity: 31.6 mPa·s
303.15 K, x1 = 0.039
  electrical conductivity: 2.38 S/m
  viscosity: 22 mPa·s
303.15 K, x1 = 0.099
  electrical conductivity: 2.37 S/m
  viscosity: 25.2 mPa·s
303.15 K, x1 = 0.1395
  electrical conductivity: 2.17 S/m
  viscosity: 26.5 mPa·s
308.15 K, x1 = 0.039
  electrical conductivity: 2.72 S/m
  viscosity: 18.84 mPa·s
308.15 K, x1 = 0.099
  electrical conductivity: 2.72 S/m
  viscosity: 21.4 mPa·s
308.15 K, x1 = 0.1395
  electrical conductivity: 2.5 S/m
  viscosity: 22.5 mPa·s
313.15 K, x1 = 0.099
  electrical conductivity: 3.11 S/m
  viscosity: 18.21 mPa·s
313.15 K, x1 = 0.1395
  electrical conductivity: 2.88 S/m
  viscosity: 19.1 mPa·s
318.15 K, x1 = 0.099
  electrical conductivity: 3.52 S/m
  viscosity: 16 mPa·s
323.15 K, x1 = 0.039
  electrical conductivity: 3.97 S/m
  viscosity: 12.59 mPa·s
323.15 K, x1 = 0.099
  electrical conductivity: 3.98 S/m
  viscosity: 14.03 mPa·s
328.15 K, x1 = 0.099
  viscosity: 12.4 mPa·s
328.15 K, x1 = 0.1395
  viscosity: 12.88 mPa·s
333.15 K, x1 = 0.039
  viscosity: 9.85 mPa·s
333.15 K, x1 = 0.1395
  viscosity: 11.33 mPa·s
338.15 K, x1 = 0.039
  viscosity: 9.01 mPa·s
338.15 K, x1 = 0.099
  viscosity: 9.9 mPa·s
338.15 K, x1 = 0.1395
  viscosity: 10.24 mPa·s
343.15 K, x1 = 0.039
  viscosity: 8.16 mPa·s
343.15 K, x1 = 0.099
  viscosity: 8.91 mPa·s
348.15 K, x1 = 0.039
  viscosity: 7.42 mPa·s
348.15 K, x1 = 0.1395
  viscosity: 8.32 mPa·s
353.15 K, x1 = 0.039
  viscosity: 6.68 mPa·s

## CC[n+]1ccn(C)c1.N#C[S-] + [N-]=C=S.[NH4+]
298.15 K, x2 = 0
  electrical conductivity: 2.32 S/m
  viscosity: 23.1 mPa·s
303.15 K, x2 = 0
  electrical conductivity: 2.67 S/m
  viscosity: 19.68 mPa·s
308.15 K, x2 = 0
  electrical conductivity: 3.06 S/m
  viscosity: 16.97 mPa·s
313.15 K, x2 = 0
  electrical conductivity: 3.47 S/m
  viscosity: 14.54 mPa·s
318.15 K, x2 = 0
  electrical conductivity: 3.92 S/m
  viscosity: 12.98 mPa·s
328.15 K, x2 = 0
  viscosity: 10.25 mPa·s
333.15 K, x2 = 0
  viscosity: 9.02 mPa·s
338.15 K, x2 = 0
  viscosity: 8.3 mPa·s
343.15 K, x2 = 0
  viscosity: 7.53 mPa·s
